We go through 23 molecules from US20200347043A1, “MODULATORS OF THE INTEGRATED STRESS PATHWAY” (Calico Life Sciences LLC, priority 2019, published 2020).

This assay concerns HEK293T cells carrying the ATF4 luciferase reporter. Nature of the assay: ATF4-Luc assay (in vitro model of VWMD). It counts as cell-based, human. Particulars: Homo sapiens, HEK-293T, 1 μg/mL tunicamycin, 7 hours, One Glo luminescence. The procedure, abridged: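 Stable HEK293T line expressing firefly luciferase behind the human ATF4 5′-UTR, treated with 1 μg/mL tunicamycin plus compound for 7 hours. Luminescence read with One Glo; EC50 determined.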
`O=C(NC12CC(c3cc([C@H]4C[C@H](OC(F)(F)F)C4)no3)(C1)C2)[C@H]1C[C@@H](O)c2cc(Cl)ccc2O1` [Compound 284, (2R,4R)-6-chloro-4-hydroxy-N-(3-{3-[trans-3-(trifluoromethoxy)cyclobutyl]-1,2-oxazol-5-yl}bicyclo[1.1.1]pentan-1-yl)-3,4-dihydro-2H-1-benzopyran-2-carboxamide]: the concentration for a half-maximal effect (EC50) lay in the range of 50 to 250 nM.

In the case of `O=C(NC12CC(NC(=O)[C@H]3C[C@@H](O)c4cc(Cl)ccc4O3)(C1)C2)c1cnc(-c2ccccc2)o1` [Compound 285, N-(3-{[(2R,4R)-6-chloro-4-hydroxy-3,4-dihydro-2H-1-benzopyran-2-carbonyl]amino}bicyclo[11.1]pentan-1-yl)-2-phenyl-1,3-oxazole-5-carboxamide], the EC50 is under 10 nM.

As to `N#C[C@H]1C[C@@H](Oc2nc(C34CC(NC(=O)[C@H]5C[C@@H](O)c6cc(Cl)ccc6O5)(C3)C4)cs2)C1` [Compound 286, (2R,4R)-6-chloro-N-[3-(2-{[cis-3-cyanocyclobutyl]oxy}-1,3-thiazol-4-yl)bicyclo[1.1.1]pentan-1-yl]-4-hydroxy-3,4-dihydro-2H-1-benzopyran-2-carboxamide], the EC50 was 500 to 2000 nM.

`O=C(NC12CC(n3cnc([C@H]4C[C@@H](OC(F)(F)F)C4)c3)(C1)C2)[C@H]1C[C@@H](O)c2cc(Cl)ccc2O1` [Compound 287, (2R,4R)-6-chloro-4-hydroxy-N-(3-{4-[cis-3-(trifluoromethoxy)cyclobutyl]-1H-imidazol-1-yl}bicyclo[1.1.1]pentan-1-yl)-3,4-dihydro-2H-1-benzopyran-2-carboxamide]: the EC50 was under 10 nM.

`O=C(NC12CC(c3ncc([C@H]4C[C@@H](OC(F)(F)F)C4)o3)(C1)C2)[C@H]1C[C@@H](O)c2cc(Cl)ccc2O1` [Compound 288, (2R,4R)-6-chloro-4-hydroxy-N-(3-{5-[cis-3-(trifluoromethoxy)cyclobutyl]-1,3-oxazol-2-yl}bicyclo[1.1.1]pentan-1-yl)-3,4-dihydro-2H-1-benzopyran-2-carboxamide]: the EC50 was 10 to 50 nM.

Regarding `O=C(NC12CC(c3ncc([C@H]4C[C@@H](OC(F)(F)F)C4)[nH]3)(C1)C2)[C@H]1C[C@@H](O)c2cc(Cl)ccc2O1` [Compound 289, (2R,4R)-6-chloro-4-hydroxy-N-(3-{5-[cis-3-(trifluoromethoxy)cyclobutyl]-1H-imidazol-2-yl}bicyclo[1.1.1]pentan-1-yl)-3,4-dihydro-2H-1-benzopyran-2-carboxamide], the EC50 is 10 to 50 nM.

As for `O=C(NC12CC(n3cc(C4CCC4)cn3)(C1)C2)[C@H]1C[C@@H](O)c2cc(Cl)ccc2O1` [Compound 290, (2R,4R)-6-chloro-N-[3-(4-cyclobutyl-1H-pyrazol-1-yl)bicyclo[1.1.1]pentan-1-yl]-4-hydroxy-3,4-dihydro-2H-1-benzopyran-2-carboxamide], the EC50 was in the range of 50 to 250 nM.

As to `O=C(NC12CC(n3cc(C4CCC4)cn3)(C1)C2)[C@@H]1C[C@@H](O)c2cc(Cl)ccc2O1` [Compound 291, (2S,4R)-6-chloro-N-[3-(4-cyclobutyl-1H-pyrazol-1-yl)bicyclo[1.1.1]pentan-1-yl]-4-hydroxy-3,4-dihydro-2H-1-benzopyran-2-carboxamide], the concentration for a half-maximal effect (EC50) is 500 to 2000 nM.

As to `O=C(N[C@@H]1CC[C@@H](c2ncc([C@H]3C[C@@H](OC(F)(F)F)C3)o2)OC1)[C@H]1C[C@@H](O)c2cc(Cl)ccc2O1` [Compound 292, (2R,4R)-6-chloro-4-hydroxy-N-[(3R,6S)-6-{5-[3-(trifluoromethoxy)cyclobutyl]-1,3-oxazol-2-yl}oxan-3-yl]-3,4-dihydro-2H-1-benzopyran-2-carboxamide], the EC50 is under 10 nM.

Turning to `O=C(NC12CC(c3cn([C@H]4C[C@@H](OC(F)(F)F)C4)cn3)(C1)C2)[C@H]1C[C@@H](O)c2cc(Cl)ccc2O1` [Compound 294, (2R,4R)-6-chloro-4-hydroxy-N-(3-{1-[cis-3-(trifluoromethoxy)cyclobutyl]-1H-imidazol-4-yl}bicyclo[1.1.1]pentan-1-yl)-3,4-dihydro-2H-1-benzopyran-2-carboxamide], the EC50 was in the range of 10 to 50 nM.

On to `O=C(CO[C@H]1C[C@@H](OC(F)(F)F)C1)NC12CC(NC(=O)[C@@H]3C[C@H](O)c4cc(Cl)ccc4O3)(C1)C2` [Compound 295, (2S,4S)-6-chloro-4-hydroxy-N-[3-(2-{[cis-3-(trifluoromethoxy)cyclobutyl]oxy}acetamido)bicyclo[1.1.1]pentan-1-yl]-3,4-dihydro-2H-1-benzopyran-2-carboxamide], for which the EC50 lay within 10 to 50 nM.

As to `O=C(NC12CCC(c3ncc([C@H]4C[C@@H](OC(F)(F)F)C4)o3)(CC1)CC2)[C@H]1C[C@@H](O)c2cc(Cl)ccc2O1` [Compound 297, (2R,4R)-6-chloro-4-hydroxy-N-(4-{5-[cis-3-(trifluoromethoxy)cyclobutyl]-1,3-oxazol-2-yl}bicyclo[2.2.2]octan-1-yl)-3,4-dihydro-2H-1-benzopyran-2-carboxamide], the concentration for a half-maximal effect (EC50) was in the range of 10 to 50 nM.

For the molecule `O=C(NC12CC(c3ccn([C@H]4C[C@@H](OC(F)(F)F)C4)n3)(C1)C2)[C@H]1C[C@@H](O)c2cc(Cl)ccc2O1` [Compound 298, (2R,4R)-6-chloro-4-hydroxy-N-(3-{1-[cis-3-(trifluoromethoxy)cyclobutyl]-1H-pyrazol-3-yl}bicyclo[1.1.1]pentan-1-yl)-3,4-dihydro-2H-1-benzopyran-2-carboxamide], the EC50 was 50 to 250 nM.

In the case of `O=C(NC12CC(c3csc(O[C@H]4C[C@@H](OC(F)(F)F)C4)n3)(C1)C2)[C@H]1C[C@@H](O)c2cc(Cl)ccc2O1` [Compound 300, (2R,4R)-6-chloro-4-hydroxy-N-[3-(2-{[cis-3-(trifluoromethoxy)cyclobutyl]oxy}-1,3-thiazol-4-yl)bicyclo[1.1.1]pentan-1-yl]-3,4-dihydro-2H-1-benzopyran-2-carboxamide], the EC50 was in the range of 50 to 250 nM.

Consider `O=C(NC12CC(Oc3nc([C@H]4C[C@@H](OC(F)(F)F)C4)cs3)(C1)C2)[C@H]1C[C@@H](O)c2cc(Cl)ccc2O1` [Compound 301, (2R,4R)-6-chloro-4-hydroxy-N-[3-({4-[cis-3-(trifluoromethoxy)cyclobutyl]-1,3-thiazol-2-yl}oxy)bicyclo[1.1.1]pentan-1-yl]-3,4-dihydro-2H-1-benzopyran-2-carboxamide], for which the EC50 is 500 to 2000 nM.

Turning to `O=C(NC12CC(n3cc(-c4ccc(OC(F)(F)F)cc4)cn3)(C1)C2)[C@H]1C[C@@H](O)c2cc(Cl)ccc2O1` [Compound 302, (2R,4R)-6-chloro-4-hydroxy-N-(3-{4-[4-(trifluoromethoxy)phenyl]-1H-pyrazol-1-yl}bicyclo[1.1.1]pentan-1-yl)-3,4-dihydro-2H-1-benzopyran-2-carboxamide], the EC50 was under 10 nM.

Turning to `O=C(N[C@H]1CC[C@H](N2CCN(c3cnc(C(F)F)cn3)C2=O)CC1)[C@H]1C[C@@H](O)c2cc(Cl)ccc2O1` [Compound 303, (2R,4R)-6-chloro-N-[trans-4-{3-[5-(difluoromethyl)pyrazin-2-yl]-2-oxoimidazolidin-1-yl}cyclohexyl]-4-hydroxy-3,4-dihydro-2H-1-benzopyran-2-carboxamide], the EC50 lay in the range of 50 to 250 nM.

Consider `O=C(N[C@H]1C[C@H]2C[C@@H]1C[C@@H]2n1cnc(-c2ccc(F)c(F)c2)c1)[C@H]1C[C@@H](O)c2cc(Cl)ccc2O1` [Compound 304, (2R,4R)-6-chloro-N-{(1R,2S,4R,5S)-5-[4-(3,4-difluorophenyl)-1H-imidazol-1-yl]bicyclo[2.2.1]heptan-2-yl}-4-hydroxy-3,4-dihydro-2H-1-benzopyran-2-carboxamide], for which the EC50 was under 10 nM.

On to `O=C(NC12CC(c3cnc(-c4ccc(Cl)c(F)c4)o3)(C1)C2)[C@H]1C[C@@H](O)c2cc(Cl)ccc2O1` [Compound 305, (2R,4R)-6-chloro-N-{3-[2-(4-chloro-3-fluorophenyl)-1,3-oxazol-5-yl]bicyclo[1.1.1]pentan-1-yl}-4-hydroxy-3,4-dihydro-2H-1-benzopyran-2-carboxamide], for which the concentration for a half-maximal effect (EC50) was under 10 nM.

Take `O=C(NC12CC(N3CC(c4ccc(Cl)cc4)CC3=O)(C1)C2)[C@H]1C[C@@H](O)c2cc(Cl)ccc2O1` (stereo partly drawn) [Compound 307, (2R,4R)-6-chloro-N-{3-[4-(4-chlorophenyl)-2-oxopyrrolidin-1-yl]bicyclo[1.1.1]pentan-1-yl}-4-hydroxy-3,4-dihydro-2H-1-benzopyran-2-carboxamide]: the EC50 was under 10 nM.

Take `O=C(NC12CC(n3cc(-c4ccc(OC(F)(F)F)cn4)cn3)(C1)C2)[C@H]1C[C@@H](O)c2cc(Cl)ccc2O1` [Compound 308, (2R,4R)-6-chloro-4-hydroxy-N-(3-{4-[5-(trifluoromethoxy)pyridin-2-yl]-1H-pyrazol-1-yl}bicyclo[1.1.1]pentan-1-yl)-3,4-dihydro-2H-1-benzopyran-2-carboxamide]: the EC50 is under 10 nM.

`O=C(N[C@H]1CC[C@H](N2CCN(c3ccc(C(F)(F)F)nc3)C2=O)CC1)[C@@H]1C[C@@H](O)c2cc(Cl)ccc2O1` [Compound 309, (2S,4R)-6-chloro-4-hydroxy-N-[trans-4-{2-oxo-3-[6-(trifluoromethyl)pyridin-3-yl]imidazolidin-1-yl}cyclohexyl]-3,4-dihydro-2H-1-benzopyran-2-carboxamide]: the concentration for a half-maximal effect (EC50) was over 2000 nM.

For `O=C(N[C@H]1CC[C@H](N2CCN(c3ccc(C(F)(F)F)nc3)C2=O)CC1)[C@H]1C[C@@H](O)c2cc(Cl)ccc2O1` [Compound 310], the EC50 was 50 to 250 nM.
